Measurements as given in publication PMC6133161, “Thiazoles with cyclopropyl fragment as antifungal, anticonvulsant, and anti-Toxoplasma gondii agents: synthesis, toxicity evaluation, and molecular docking study” (Medicinal Chemistry Research, 2018).
≈ marks a conversion by molar mass, not a printed value. Read-outs that look alike come from different tables or passages of the source.

Experiments:
L929 and VERO cell lines = assay: MTT cytotoxicity assay; assay type: cell-based, mouse; African green monkey; conditions: 24 h, higher concentrations not reached due to limited solubility
[1] = test system: 6-Hz psychomotor seizures; assay: 6-Hz test; assay type: in vivo, mouse; conditions: mice; for responders at 100 mg/kg: 100 mg/kg ip
Method: For in vivo tests that assessed anticonvulsant properties of the test compounds 3a-3j adult male Albino Swiss (CD-1) mice weighing between 18 and 22 g were used. The animals were housed in groups of ten mice per cage at room temperature of 22 ± 2 °C, under light/dark (12:12) cycle. The animals had free access to food and tap water before the experiments. The ambient temperature of the experimental room and humidity (50 ± 10%) were kept consistent throughout all the tests. For behavioral experiments the animals were selected randomly. Each experimental group consisted of 4-8 animals/dose. The experiments were performed between 9 AM and 2 PM. Immediately after the in vivo assay the animals were euthanized by cervical dislocation. All procedures were approved by the Local Ethics Committee of the Jagiellonian University in Krakow (34/2018, 1.02.2018)) and the treatment of animals was in full accordance with ethical standards laid down in respective Polish and EU regulations (Directive No. 86/609/EEC). For in vivo tests the compounds 3a-3j were prepared in 1% Tween 80 solution (POCH, Poland) and they were administered by the intraperitoneal route. Control mice received 1% Tween 80. Pentylenetetrazole (PTZ), pilocarpine hydrochloride and scopolamine butylbromide were provided by Sigma Aldrich (Poland). For the tests they were prepared in 0.9% saline (Polfa Kutno, Poland). PTZ and pilocarpine were administered 60 min after the test compound or vehicle. To assess anticonvulsant properties of the test compounds anticonvulsant screening was conducted. Four assays were used: PTZ, maximal electroshock seizure (MES), 6-Hz and pilocarpine tests. In these assays the dose of 100 mg/kg was chosen as a starting dose. If it turned out to be effective, a lower dose (30 mg/kg) was also tested. This test was performed according to (Barton et al. [2001]). It is an alternative electroshock paradigm that involves low-frequency (6 Hz), long-duration (3 s) electrical stimulation. Corneal stimulation (0.2 ms-duration monopolar rectangular pulses at 6 Hz for 3 s) was delivered by a constant-current device. During electrical stimulation mice were manually restrained and released into the observation cage immediately after current application. At the time of drug administration a drop of 0.5% tetracaine ([…] sterile solution, […] Pharmaceuticals Inc., USA) was applied into the eyes of all animals. Prior to the placement of corneal electrodes, a drop of 0.9% saline was applied on the eyes. In this model seizures manifest in 'stunned' posture associated with rearing, forelimb automatic movements and clonus, twitching of the vibrissae and Straub-tail. At the end of the seizure episode the animals resume their normal exploratory behavior. In this test protection against a seizure episode is considered as the end point and animals are considered to be protected if they resume their normal exploratory behavior within 10 s after electrical stimulation.

[2] = test system: Candida albicans ATCC 2091; assay: Broth microdilution MIC/MFC, reference strain; assay type: cell-based; conditions: C. albicans ATCC 2091
From the text: (§1) The examined compounds 3a–3j were screened in vitro for antibacterial and antifungal activities using the broth microdilution method according to European Committee on Antimicrobial Susceptibility Testing (EUCAST) (EUCAST [2003]) and Clinical and Laboratory Standards Institute guidelines (CLSI [2012]) against reference strains of microorganisms from American Type Culture Collection (ATCC), including fungi belonging to yeasts (Candida albicans ATCC 2091, Candida albicans ATCC 10231, Candida parapsilosis ATCC 22019 and Candida krusei ATCC 14243).
(§2) In the study of antifungal activity of the compounds 3a–3j, 15 clinical strains of different species of yeasts from Candida species, namely C. albicans, C. dubliniensis C. famata, C. inconspicua, C. krusei, C. tropicalis, C. glabrata, C. lambica, C. kefyr, C. lusitaniae, C. parapsilosis, C. guilliermondii, C. lusitaniae, C. pulcherrima and C. sake were also used. These fungi were isolated by the author (from Department of Pharmaceutical Microbiology of Medical University in Lublin, Poland) from different clinical materials, e.g., from upper respiratory tract of hospitalized patients including cancer patients (i.e., with non-small cell lung cancer or hematological malignancies). Some patients were after pre-operative or post-operative chemotherapy (treated with etoposide or cis-platin given in doses according to the standard procedures), patients with chronic hepatitis C (undergoing peginterferon and ribavirin therapy or without antiviral therapy), patients with diabetes, elderly people, aged of 65 years old or older, staying in close population, such as a care centre and people staying outside the home care. The Ethical Committee of the Medical University of Lublin approved the study protocol (No. KE-0254/75/2011). The isolates were identified by standard diagnostic methods—biochemical microtest, e.g., API 20C AUX, ID 32C, API Candida (bioMérieux) on the basis of assimilation of various substrates. All the used microbial cultures were first subcultured on nutrient agar or Sabouraud agar for bacteria and fungi, respectively. The RPMI 1640 with MOPS (for fungi) were inoculated with the suspensions of fungal species. Microbial suspensions were prepared in sterile saline (0.85% NaCl) with an optical density of 0.5 McFarland standard scale (Wiegand et al. [2008]). Samples containing examined compounds were dissolved in dimethyl sulfoxide (DMSO). Furthermore, fungal suspensions were put onto Petri dishes with solid media containing 2 mg/ml of the tested compounds followed incubation under appropriate conditions. The inhibition of microbial growth was judged by comparison with a control culture prepared without any sample tested. Nystatin (Sigma) was used as a reference antifungal compound. Subsequently MIC minimal inhibitory concentration (MIC) of the compounds was examined by the microdilution broth method, using their two-fold dilutions in RPMI 1640 broth with MOPS prepared in 96-well polystyrene plates. Final concentrations of the compounds ranged from 1000 to 0.0038 µg/ml. Microbial suspensions were prepared in sterile saline with an optical density of 0.5 McFarland standard. Next fungal suspension was added per each well containing broth and various concentrations of the examined compounds. After incubation, the MIC was assessed spectrophotometric as the lowest concentration of the samples showing complete fungal growth inhibition. Appropriate DMSO, growth and sterile controls were carried out. The medium with no tested substances was used as a control (Wiegand et al. [2008]). The minimal fungicidal concentration (MFC) are defined as the lowest concentration of the compounds that is required to kill a particular fungal species. MFC was determined by removing the culture using for MIC determinations from each well and spotting onto appropriate agar medium. The plates were incubated. The lowest compounds concentration with no visible growth observed was assessed as a fungicidal concentration. […]

[3] = test system: Candida parapsilosis ATCC 22019; assay: Broth microdilution MIC/MFC, reference strain; assay type: cell-based; conditions: C. parapsilosis ATCC 22019
From the text: as §1, §2

[4] = test system: Candida krusei ATCC 14243; assay: Broth microdilution MIC/MFC, reference strain; assay type: cell-based; conditions: C. krusei ATCC 14243
From the text: as §1, §2

[5] = test system: Candida albicans ATCC 10231; assay: Broth microdilution MIC/MFC, reference strain; assay type: cell-based; conditions: C. albicans ATCC 10231
From the text: as §1, §2

[6] = Mus musculus, read-out: X/Y number of mice protected (X) per number of mice tested (Y) (converted)
[7] = Candida albicans, ATCC2091, read-out: MFC
[8] = Candida albicans, ATCC2091, read-out: MIC
[9] = Lodderomyces parapsilosis, ATCC22019, read-out: MFC
[10] = Lodderomyces parapsilosis, ATCC22019, read-out: MIC
[11] = Pichia kudriavzevii, ATCC14243, read-out: MFC
[12] = Pichia kudriavzevii, ATCC14243, read-out: MIC
[13] = Candida albicans, ATCC10231, read-out: MFC
[14] = Candida albicans, ATCC10231, read-out: MIC

SMILES	MIC [2, 8] [µg/mL]	MIC [3, 10] [µg/mL]	MIC [4, 12] [µg/mL]	MIC [5, 14] [µg/mL]	highest possible non-cytotoxic concentration (L929 and VERO cell lines) [µg/mL]	responders at 100 mg/kg [1, 6] [%]	MFC [2, 7] [µg/mL]	MFC [3, 9] [µg/mL]	MFC [4, 11] [µg/mL]	MFC [5, 13] [µg/mL]	also measured
FC(F)(F)c1ccc(-c2csc(N/N=C/C3CC3)n2)cc1 [Compound 3e, (E)-2-(2-(Cyclopropylmethylene)hydrazinyl)-4-(4-(trifluoromethyl)phenyl)thiazole]	–	–	–	–	3.91	25	–	–	–	–	–
C[C@@H]1[C@H](O)[C@@H](C)/C=C/C=C/CC/C=C/C=C/C=C/C=C/C(O[C@H]2O[C@H](C)[C@@H](O)[C@H](N)[C@@H]2O)CC2O[C@](O)(CC(O)C(O)CCC(O)CC(O)CC(O)CC(=O)O[C@H]1C)CC(O)C2C(=O)O (stereo partly drawn) [Nystatin, reference compound]	–	–	–	–	–	–	–	–	–	–	MFC [2]: 0.24 µg/mL (≈ 0.259 µM); MFC/MIC [2]: 1; MIC [2]: 0.24 µg/mL (≈ 0.259 µM); MFC [3]: 0.48 µg/mL (≈ 0.518 µM); MFC/MIC [3]: 2; MIC [3]: 0.24 µg/mL (≈ 0.259 µM); MFC [4]: 0.24 µg/mL (≈ 0.259 µM); MFC/MIC [4]: 1; MIC [4]: 0.24 µg/mL (≈ 0.259 µM); MFC [5]: 0.48 µg/mL (≈ 0.518 µM); MFC/MIC [5]: 1; MIC [5]: 0.48 µg/mL (≈ 0.518 µM)
COc1ccc(-c2csc(N/N=C/C3CC3)n2)cc1 [Compound 3f, (E)-2-(2-(Cyclopropylmethylene)hydrazinyl)-4-(4-methoxyphenyl)thiazole]	0.24 (≈ 0.878 µM)	0.48 (≈ 1.76 µM)	0.48 (≈ 1.76 µM)	0.015 (≈ 0.0549 µM)	31.25	50	1.95 (≈ 7.13 µM)	3.91 (≈ 14.3 µM)	0.98 (≈ 3.59 µM)	0.03 (≈ 0.11 µM)	–
[N-]=[N+]=Nc1ccc(-c2csc(N/N=C/C3CC3)n2)cc1 [Compound 3i, (E)-4-(4-Azidophenyl)-2-(2-(cyclopropylmethylene)hydrazinyl)thiazole]	0.98 (≈ 3.45 µM)	0.98 (≈ 3.45 µM)	0.48 (≈ 1.69 µM)	0.24 (≈ 0.844 µM)	15.63	75	3.91 (≈ 13.8 µM)	7.81 (≈ 27.5 µM)	1.95 (≈ 6.86 µM)	1.95 (≈ 6.86 µM)	responders at 30 mg/kg ([1]; Mus musculus, 30 mg/kg ip, read-out: X/Y number of mice protected (X) per number of mice tested (Y) (converted)): 25%; animals protected from seizures ([1]; 100 mg/kg): 75%
O=[N+]([O-])c1ccc(-c2csc(N/N=C/C3CC3)n2)cc1 [Compound 3j, (E)-2-(2-(Cyclopropylmethylene)hydrazinyl)-4-(4-nitrophenyl)thiazole]	3.91 (≈ 13.6 µM)	3.91 (≈ 13.6 µM)	0.98 (≈ 3.4 µM)	0.48 (≈ 1.66 µM)	31.25	0	7.81 (≈ 27.1 µM)	31.2 (≈ 108 µM)	3.91 (≈ 13.6 µM)	1.95 (≈ 6.76 µM)	–

Continued by falling MIC [2, 8], values first:

MIC [2, 8] [µg/mL]	MIC [3, 10] [µg/mL]	MIC [4, 12] [µg/mL]	MIC [5, 14] [µg/mL]	SMILES	highest possible non-cytotoxic concentration (L929 and VERO cell lines) [µg/mL]	responders at 100 mg/kg [1, 6] [%]	MFC [2, 7] [µg/mL]	MFC [3, 9] [µg/mL]	MFC [4, 11] [µg/mL]	MFC [5, 13] [µg/mL]	also measured
1.95 (≈ 6.98 µM)	3.91 (≈ 14 µM)	7.81 (≈ 28 µM)	0.48 (≈ 1.72 µM)	Fc1ccc(-c2csc(N/N=C/C3CC3)n2)c(F)c1 [Compound 3g, (E)-2-(2-(Cyclopropylmethylene)hydrazinyl)-4-(2,4-difluorophenyl)thiazole]	15.63	25	1.95 (≈ 6.98 µM)	3.91 (≈ 14 µM)	31.2 (≈ 112 µM)	0.98 (≈ 3.51 µM)	–
1.95 (≈ 7.27 µM)	3.91 (≈ 14.6 µM)	0.98 (≈ 3.65 µM)	0.48 (≈ 1.79 µM)	N#Cc1ccc(-c2csc(N/N=C/C3CC3)n2)cc1 [Compound 3h, (E)-4-(2-(2-(Cyclopropylmethylene)hydrazinyl)thiazol-4-yl)benzonitrile]	31.25	50	3.91 (≈ 14.6 µM)	3.91 (≈ 14.6 µM)	1.95 (≈ 7.27 µM)	1.95 (≈ 7.27 µM)	–
1.95 (≈ 7.46 µM)	1.95 (≈ 7.46 µM)	3.91 (≈ 15 µM)	1.95 (≈ 7.46 µM)	Fc1ccc(-c2csc(N/N=C/C3CC3)n2)cc1 [Compound 3a, (E)-2-(2-(Cyclopropylmethylene)hydrazinyl)-4-(4-fluorophenyl)thiazole]	31.25	25	3.91 (≈ 15 µM)	3.91 (≈ 15 µM)	15.6 (≈ 59.8 µM)	15.6 (≈ 59.8 µM)	–
0.12 (≈ 0.372 µM)	0.48 (≈ 1.49 µM)	0.24 (≈ 0.745 µM)	0.06 (≈ 0.186 µM)	Brc1ccc(-c2csc(N/N=C/C3CC3)n2)cc1 [Compound 3b, (E)-4-(4-Bromophenyl)-2-(2-(cyclopropylmethylene)hydrazinyl)thiazole]	7.81	0	0.98 (≈ 3.04 µM)	1.95 (≈ 6.05 µM)	0.98 (≈ 3.04 µM)	0.24 (≈ 0.745 µM)	–
0.12 (≈ 0.466 µM)	0.24 (≈ 0.933 µM)	0.06 (≈ 0.233 µM)	0.06 (≈ 0.233 µM)	Cc1ccc(-c2csc(N/N=C/C3CC3)n2)cc1 [Compound 3d, (E)-2-(2-(Cyclopropylmethylene)hydrazinyl)-4-p-tolylthiazole]	31.25	50	1.95 (≈ 7.58 µM)	0.98 (≈ 3.81 µM)	0.48 (≈ 1.87 µM)	0.24 (≈ 0.933 µM)	–
